# Target: hERG potassium channel (Homo sapiens, UniProt Q12809)
# Assay: hERG channel inhibition test
# Type: cell-based
# Chain of hERG potassium channel (Q12809 whole entry): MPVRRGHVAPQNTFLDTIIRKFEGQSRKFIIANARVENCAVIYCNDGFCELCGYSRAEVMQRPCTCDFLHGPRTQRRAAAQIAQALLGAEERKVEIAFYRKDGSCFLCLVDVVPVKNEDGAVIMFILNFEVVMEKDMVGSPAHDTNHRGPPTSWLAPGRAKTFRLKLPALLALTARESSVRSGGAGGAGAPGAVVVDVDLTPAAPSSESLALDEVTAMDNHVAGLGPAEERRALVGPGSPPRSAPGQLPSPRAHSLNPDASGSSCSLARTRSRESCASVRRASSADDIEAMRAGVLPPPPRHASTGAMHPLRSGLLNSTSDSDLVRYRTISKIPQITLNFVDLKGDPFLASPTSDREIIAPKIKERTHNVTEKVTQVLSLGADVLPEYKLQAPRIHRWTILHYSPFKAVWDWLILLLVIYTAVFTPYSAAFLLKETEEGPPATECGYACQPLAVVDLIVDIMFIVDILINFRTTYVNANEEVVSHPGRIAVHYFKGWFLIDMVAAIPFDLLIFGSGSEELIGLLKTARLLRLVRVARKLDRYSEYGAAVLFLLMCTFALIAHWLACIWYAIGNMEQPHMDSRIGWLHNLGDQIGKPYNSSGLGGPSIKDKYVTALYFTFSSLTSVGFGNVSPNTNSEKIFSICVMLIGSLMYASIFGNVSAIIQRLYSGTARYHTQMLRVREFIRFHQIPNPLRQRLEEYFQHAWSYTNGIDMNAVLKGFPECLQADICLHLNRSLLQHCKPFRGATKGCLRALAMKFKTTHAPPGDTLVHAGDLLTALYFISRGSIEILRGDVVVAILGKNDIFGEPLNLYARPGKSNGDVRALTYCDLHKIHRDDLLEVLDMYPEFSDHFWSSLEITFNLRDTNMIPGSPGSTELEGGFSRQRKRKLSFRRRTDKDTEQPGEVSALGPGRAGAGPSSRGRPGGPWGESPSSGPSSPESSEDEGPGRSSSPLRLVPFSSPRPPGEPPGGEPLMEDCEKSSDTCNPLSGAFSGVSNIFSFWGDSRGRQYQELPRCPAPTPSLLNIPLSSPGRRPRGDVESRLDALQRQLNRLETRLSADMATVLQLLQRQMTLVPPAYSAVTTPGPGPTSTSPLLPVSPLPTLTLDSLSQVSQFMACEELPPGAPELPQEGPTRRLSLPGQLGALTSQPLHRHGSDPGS
structure (smiles),measurement,value
"CC(C)[C@H]1OC(=O)[C@H](Cc2ccccc2)N(C)C(=O)[C@@H](C(C)C)OC(=O)[C@H](Cc2ccccc2)N(C)C(=O)[C@@H](C(C)C)OC(=O)[C@H](Cc2ccccc2)N(C)C1=O [BEA, beauvericin]",IC50,~2550 nM
